The source made the active and inactive calls. No cut-off for these calls is given here.

In assay [1] the target is T1, Beta-2 adrenergic receptor (Cavia porcellus, UniProt Q8K4Z4). Kind of assay: Agonist activity at beta2 adrenoceptor in guinea pig assessed as relaxation of histamine-induced tracheal ring contraction. Type of assay: functional, tissue-based, Trachea.
For assay [2], the target named is 3',5'-cyclic-AMP phosphodiesterase 4B (Homo sapiens, UniProt Q07343). In words: Inhibition of human recombinant PDE4B2-mediated cAMP hydrolysis for 30 mins by colorimetric assay.
Chain of 3',5'-cyclic-AMP phosphodiesterase 4B (Q07343 whole entry): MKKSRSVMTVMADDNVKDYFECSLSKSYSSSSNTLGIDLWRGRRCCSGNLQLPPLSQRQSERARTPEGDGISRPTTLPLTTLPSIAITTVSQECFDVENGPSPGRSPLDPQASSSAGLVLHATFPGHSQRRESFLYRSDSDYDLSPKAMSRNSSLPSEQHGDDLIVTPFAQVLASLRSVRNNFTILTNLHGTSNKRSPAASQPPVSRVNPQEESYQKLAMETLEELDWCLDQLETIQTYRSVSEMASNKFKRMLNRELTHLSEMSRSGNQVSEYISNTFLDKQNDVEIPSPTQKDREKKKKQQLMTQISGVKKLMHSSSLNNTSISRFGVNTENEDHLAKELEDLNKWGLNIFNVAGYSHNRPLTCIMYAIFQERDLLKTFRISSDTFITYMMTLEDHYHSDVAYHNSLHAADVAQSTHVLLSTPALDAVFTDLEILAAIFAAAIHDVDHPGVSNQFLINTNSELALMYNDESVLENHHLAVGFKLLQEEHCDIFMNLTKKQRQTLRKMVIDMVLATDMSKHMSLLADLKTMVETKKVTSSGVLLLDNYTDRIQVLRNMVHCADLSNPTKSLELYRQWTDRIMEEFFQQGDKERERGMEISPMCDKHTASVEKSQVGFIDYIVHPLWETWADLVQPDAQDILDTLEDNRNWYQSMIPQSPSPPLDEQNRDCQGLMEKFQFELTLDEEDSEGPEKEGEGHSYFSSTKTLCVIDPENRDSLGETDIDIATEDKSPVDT
For assay [3], the target named is Beta-2 adrenergic receptor (Cavia porcellus) (UniProt Q8K4Z4). Kind of assay: Agonist activity at beta2 adrenoceptor in guinea pig assessed as relaxation of histamine-induced tracheal ring contraction in the presence of inverse agonist ICI-118551. Type of assay: functional, tissue-based. As to conditions: Trachea.
Chain of Beta-2 adrenergic receptor (Cavia porcellus) (Q8K4Z4 whole entry, looked up): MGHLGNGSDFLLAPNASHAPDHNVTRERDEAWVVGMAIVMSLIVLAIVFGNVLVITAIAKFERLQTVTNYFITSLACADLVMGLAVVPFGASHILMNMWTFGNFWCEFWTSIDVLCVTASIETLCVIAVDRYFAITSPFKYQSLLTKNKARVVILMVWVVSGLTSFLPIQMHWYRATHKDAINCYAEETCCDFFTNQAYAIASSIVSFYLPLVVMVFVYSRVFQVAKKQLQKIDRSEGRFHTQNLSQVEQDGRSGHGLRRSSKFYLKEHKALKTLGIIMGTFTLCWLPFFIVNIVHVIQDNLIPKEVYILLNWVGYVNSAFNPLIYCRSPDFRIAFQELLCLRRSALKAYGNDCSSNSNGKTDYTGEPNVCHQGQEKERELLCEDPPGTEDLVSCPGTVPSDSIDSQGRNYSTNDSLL
Assay [4] addresses T1, Beta-2 adrenergic receptor. In words: Competitive antagonist activity at beta2-adrenoceptor in guinea pig tracheal ring in the presence of N-(5-((1R)-2-(4-(4-(3,4-[…])-1-oxo-4a,5,6,7,8,8a-hexahydrophthalazin-2(1H)-yl)butylamino-1-hydroxyethyl)-2-hydroxyphenyl)formamide. Type of assay: functional. As to conditions: read-out: pA2 (converted).
The nature of assay [5]: Inhibition of PDE4.

T1 sequence (Q8K4Z4 whole entry): as the sequence (Q8K4Z4 whole entry, looked up) above

Regarding `COc1ccc(C2=NN(CCCCNCC(O)c3ccc(O)c(NC=O)c3)C(=O)C3CCCCC23)cc1OC` (racemic), the EC50 in assay [1] was 0.501 nM. Also, the IC50 in assay [2] was 278 nM. On to `COc1ccc(C2=NN(CCNCC(O)c3ccc(O)c(NC=O)c3)C(=O)C3CCCCC23)cc1OC` (stereo not drawn), for which the concentration for a half-maximal effect (EC50) in assay [1] was 20 nM. The concentration for half-maximal inhibition (IC50) in assay [2] was determined as 280 nM. Regarding `COc1ccc(C2=NN(CCCCNC[C@@H](O)c3ccc(O)c(NC=O)c3)C(=O)C3CCCCC23)cc1OC` (stereo partly drawn), the concentration giving a half-maximal response (EC50) in assay [1] is 126 nM. In addition, the IC50 in assay [2] is 284 nM. On to `COc1ccc(C2=NN(CCCCCCNCC(O)c3ccc(O)c(NC=O)c3)C(=O)C3CCCCC23)cc1OC` (stereo not drawn), for which the EC50 in assay [1] was 50.1 nM. Also, the IC50 in assay [2] came out at 251 nM. For `CC(C)NCC(O)c1ccc(O)c(O)c1` (stereo not drawn) [ISOPROTERENOL], in assay [1], the EC50 is 31.6 nM. Regarding `COc1ccc(C2=NN(CCCCNC[C@H](O)c3ccc(O)c(NC=O)c3)C(=O)C3CCCCC23)cc1OC` (stereo partly drawn), the concentration giving a half-maximal response (EC50) in assay [1] is 0.1 nM. In assay [3], the outcome was inactive. Besides, in assay [4], the Kb was 0.708 nM. The 50% inhibitory concentration (IC50) in assay [2] turned out to be 265 nM. With `O=c1[nH]ncc2ccccc12` [PHTHALAZINONE], the IC50 in assay [2] was determined as 520 nM.

As for `COc1ccc(C2=NNC(=O)C3CCCCC23)cc1OC` (stereo not drawn), the concentration for half-maximal inhibition (IC50) in assay [2] was 520 nM. Consider `COc1ccc([C@]2(C#N)CC[C@@H](C(=O)O)CC2)cc1OC1CCCC1` [CILOMILAST], for which the IC50 in assay [5] amounted to 95 nM. With `COc1ccc(C2=NN(CCCCCNCC(O)c3ccc(O)c(NC=O)c3)C(=O)C3CCCCC23)cc1OC` (stereo not drawn), in assay [1], the half-maximal effective concentration (EC50) was 20 nM. In addition, the IC50 in assay [2] was 257 nM.

One may read the EC50 as the midpoint of the concentration-response curve. Usually IC50 stands for the concentration that inhibits the measured activity by half.

The record behind these values is ChEMBL document CHEMBL1949615, “Dual β2-adrenoceptor agonists-PDE4 inhibitors for the treatment of asthma and COPD” (Bioorg Med Chem Lett, 2012).
